Experimental data: PubChem BioAssay (NCI)
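Assay format: 96-well plates, 48-hour exposure. TGI: total growth inhibition.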

Legend:
Assay in all cases: DTP human tumour cell line panel, 48 h
[1] = tested on: HT29 colon
[2] = tested on: UACC-257 melanoma
[3] = tested on: CCRF-CEM leukemia
[4] = tested on: MDA-MB-231 breast
[5] = tested on: SNB-75 CNS
[6] = tested on: HS 578T breast
[7] = tested on: NCI-H226 lung
[8] = tested on: ACHN renal
[9] = tested on: RXF 393 renal
[10] = tested on: SK-MEL-5 melanoma
[11] = tested on: SK-MEL-2 melanoma
[12] = tested on: SF-539 CNS
[13] = tested on: TK-10 renal

| SMILES | TGI [1] | TGI [2] | TGI [3] | TGI [4] | TGI [5] | TGI [6] | TGI [7] | TGI [8] | TGI [9] | TGI [10] | TGI [11] | TGI [12] | TGI [13] |
| --- | --- | --- | --- | --- | --- | --- | --- | --- | --- | --- | --- | --- | --- |
| O=C1OCC2OC(=O)c3cc(O)c(O)c(O)c3-c3c(O)c(O)c(O)c4c3C(=O)OC(C2OC(=O)c2cc(O)c(O)c(O)c2-c2c1cc(O)c(O)c2O)C1OC(=O)C2C4=C(O)C(=O)C23Oc2cc(O)c4c(c2[C@H]13)O[C@H](c1ccc(O)c(O)c1)[C@@H](O)C4 (stereo partly drawn) | 42.7 µM | > 100 µM | > 100 µM | 43.5 µM | 76 µM | > 100 µM | 35.6 µM | 56.6 µM | 34.9 µM | 33.8 µM | 64.4 µM |  |  |
| C=C1CCCCCCCCC/C=C/1SCCCSC | > 100 µM | > 100 µM |  | > 100 µM |  | > 100 µM | > 100 µM | > 100 µM | > 100 µM | > 100 µM | > 100 µM | > 100 µM | > 100 µM |
| COC(=O)[C@@H](NC(=O)N(Cc1ccccc1)C[C@H](CC(C)C)NC(=O)[C@@H](NC(=O)OC(C)(C)C)C(C)C)C(C)C | > 100 µM | > 100 µM |  | > 100 µM | > 100 µM | > 100 µM | > 100 µM | > 100 µM | > 100 µM | > 100 µM | > 100 µM | > 100 µM | > 100 µM |
| Cc1cc(C)nc(NC(P(=O)(O)O)P(=O)(O)O)n1 | > 100 µM | > 100 µM |  | > 100 µM |  | > 100 µM | > 100 µM | > 100 µM | > 100 µM | > 100 µM |  | > 100 µM | > 100 µM |
| C=C1CC[C@H]2C(=O)OC(c3ccoc3)C[C@]2(C)C/C=C\C=C/1C(=O)OC (stereo partly drawn) | > 25 µM | > 25 µM |  | > 25 µM | > 25 µM | > 25 µM | > 25 µM | > 25 µM | > 25 µM | > 25 µM | > 25 µM | > 25 µM | > 25 µM |
| O=c1cc(CF)[nH]c(=S)[nH]1 | > 100 µM | > 100 µM | > 100 µM | > 100 µM | > 100 µM | > 100 µM | > 100 µM | > 100 µM | > 100 µM | > 100 µM |  |  | > 100 µM |
| CC(=O)NC1C(Sc2ncn(C3OC(CO)C(O)C(O)C3NC(C)=O)n2)OC(CO)C(O)C1O (stereo not drawn) | > 100 µM | > 100 µM | > 100 µM | > 100 µM |  | > 100 µM |  | > 100 µM | > 100 µM | > 100 µM | > 100 µM | > 100 µM | > 100 µM |
